Assay results published in patent publication US9133163B2, “Dihydropyrazole GPR40 modulators” (Bristol-Myers Squibb Company, priority 2012, dated 2015).

Each compound was assayed against hGPR40 (Homo sapiens, UniProt O14842) (assay: FDSS-based intracellular calcium assay). Conditions: intracellular Ca2+ response, cells expressing GPR40.
Chain of hGPR40 (O14842 whole entry): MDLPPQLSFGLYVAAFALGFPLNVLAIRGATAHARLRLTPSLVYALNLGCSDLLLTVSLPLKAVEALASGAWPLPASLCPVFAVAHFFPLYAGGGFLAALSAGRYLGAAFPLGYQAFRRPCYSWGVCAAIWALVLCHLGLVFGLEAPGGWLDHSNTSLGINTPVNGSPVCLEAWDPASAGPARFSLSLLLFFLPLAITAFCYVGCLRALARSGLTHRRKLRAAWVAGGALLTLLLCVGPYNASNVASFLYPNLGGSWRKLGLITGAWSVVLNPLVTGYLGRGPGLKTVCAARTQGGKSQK
Type: cell-based
Set-up: 3xFLAG; expressed in transfected cells
Protocol: FDSS-Based Intracellular Calcium Assay
Compounds are dissolved in DMSO and diluted to desired concentrations with assay buffer and added to the cells as 3× solution (20 μL per well). Run fluorescence/luminescence reader FDSS (Hamamatsu) to read intracellular Ca^2+ response.
`CCOc1ccc(F)c(N2CCC(Oc3ccc(N4N=C(c5ccc(C#N)cc5F)[C@@H](C)[C@@H]4CC(=O)O)cc3)CC2)c1` [Example 94, 2-((4S,5S)-3-(4-Cyano-2-fluorophenyl)-1-(4-((1-(5-ethoxy-2-fluorophenyl)piperidin-4-yl)oxy)phenyl)-4-methyl-4,5-dihydro-1H-pyrazol-5-yl)acetic acid] gave an EC50 of 0.059 µM.
Work on `C[C@@H]1C(C(F)(F)F)=NN(c2ccc(OC3CCN(c4ccc(Cl)cc4)CC3)cc2)[C@H]1CC(=O)O` [Example 56, 2-((4S,5S)-1-(4-((1-(4-Chlorophenyl)piperidin-4-yl)oxy)phenyl)-4-methyl-3-(trifluoromethyl)-4,5-dihydro-1H-pyrazol-5-yl)acetic acid] yielded an EC50 of 6.27 µM.
Compound `CC(C)COc1cc(F)c(F)c(N2CCC(Oc3ccc(N4N=C(C(F)(F)F)[C@@H](C)[C@@H]4CC(=O)O)cc3)CC2)c1` [Example 18, 2-((4S,5S)-1-(4-((1-(2,3-Difluoro-5-isobutoxyphenyl)piperidin-4-yl)oxy)phenyl)-4-methyl-3-(trifluoromethyl)-4,5-dihydro-1H-pyrazol-5-yl)acetic acid] has an EC50 of 4.76 µM.
For `CCOc1ccc(F)c(N2CCC(Oc3ccc(N4N=C(C(F)(F)F)[C@@H](C)[C@@H]4CC(=O)O)cc3)C(CC)C2)c1` (single isomer, unassigned) [Example 25 (Isomer 1)], the EC50 was 1.02 µM.
With `COc1cc(F)c(F)c(N2CCC(Oc3ccc(N4N=C(C(F)(F)F)[C@@H](C)[C@@H]4CC(=O)O)cc3)C(C)C2)c1` (single isomer, unassigned) [Example 8 (Isomer 1)] the EC50 was 0.796 µM.
For `C[C@@H]1C(C(F)(F)F)=NN(c2ccc(OC3CCN(c4cc(O)ccc4F)CC3)cc2)[C@H]1CC(=O)O` [Example 102, 2-((4S,5S)-1-(4-((1-(2-Fluoro-5-hydroxyphenyl)piperidin-4-yl)oxy)phenyl)-4-methyl-3-(trifluoromethyl)-4,5-dihydro-1H-pyrazol-5-yl)acetic acid], the EC50 was 0.19 µM.
In the case of `COc1cc(N2CCC(Oc3ccc(N4N=C(C(F)(F)F)[C@@H](C)[C@@H]4CC(=O)O)cc3)CC2)ccn1` [Example 47, 2-((4S,5S)-1-(4-((1-(2-Methoxypyridin-4-yl)piperidin-4-yl)oxy)phenyl)-4-methyl-3-(trifluoromethyl)-4,5-dihydro-1H-pyrazol-5-yl)acetic acid], the EC50 is reported as 1.91 µM.
Compound `C[C@@H]1C(C(F)(F)F)=NN(c2ccc(OC3CCN(c4ncccc4Cl)CC3)cc2)[C@H]1CC(=O)O` [Example 58, 2-((4S,5S)-1-(4-((1-(3-Chloropyridin-2-yl)piperidin-4-yl)oxy)phenyl)-4-methyl-3-(trifluoromethyl)-4,5-dihydro-1H-pyrazol-5-yl)acetic acid] has an EC50 of 0.293 µM.
Compound `COc1ccnc(N2CCC(Oc3ccc(N4N=C(C(F)(F)F)[C@@H](C)[C@@H]4CC(=O)O)cc3)CC2)c1` [Example 45, 2-((4S,5S)-1-(4-((1-(4-Methoxypyridin-2-yl)piperidin-4-yl)oxy)phenyl)-4-methyl-3-(trifluoromethyl)-4,5-dihydro-1H-pyrazol-5-yl)acetic acid] has an EC50 of 1.52 µM.
With `COc1ccc(F)c(N2CCC(Oc3ccc(N4N=C(C(F)(F)F)[C@@H](CC5CC5)[C@@H]4CC(=O)O)cc3)CC2)c1` (single isomer, unassigned) [Example 90, Isomer 1] the EC50 was 1.63 µM.
`COc1ccc(F)c(N2CCC(Oc3ccc(N4N=C(C(F)(F)F)[C@@H](CC5CC5)[C@@H]4CC(=O)O)cc3)CC2)c1` (single isomer, unassigned) [Example 90, Isomer 2] gave an EC50 of 0.156 µM.
Work on `C[C@@H]1C(C(F)(F)F)=NN(c2ccc(OC3CCN(c4ccccc4)CC3)cc2)[C@H]1CC(=O)O` [Example 72, 2-((4S,5S)-4-Methyl-1-(4-((1-phenylpiperidin-4-yl)oxy)phenyl)-3-(trifluoromethyl)-4,5-dihydro-1H-pyrazol-5-yl)acetic acid] yielded an EC50 of 1.93 µM.
`CCOc1cc(F)c(F)c(N2CCC(Oc3ccc(N4N=C(C(F)(F)F)[C@@H](C)[C@@H]4CC(=O)O)cc3)C(C)C2)c1` (single isomer, unassigned) [Example 10 (Isomer 1)] gave an EC50 of 1.2 µM.
`CC[C@@H]1C(C(F)(F)F)=NN(c2ccc(OC3CCN(c4cc(OC)ccc4F)CC3)cc2)[C@H]1CC(=O)O` (single isomer, unassigned) [Example 88, Isomer 2] showed an EC50 of 7.45 µM.
Work on `CCC1C(C(F)(F)F)=NN(c2ccc(OC3CCN(c4cc(OC)ncc4Cl)CC3C)cc2)C1CC(=O)O` (single isomer, unassigned) [Example 86, Isomer 1, 2-(1-(4-((1-(5-Chloro-2-methoxypyridin-4-yl)-3-methylpiperidin-4-yl)oxy)phenyl)-4-ethyl-3-(trifluoromethyl)-4,5-dihydro-1H-pyrazol-5-yl)acetic acid] yielded an EC50 of 0.073 µM.
`COC(=O)c1ccc(C2=NN(c3ccc(OC4CCN(c5cc(OC)ccc5F)CC4)cc3)[C@@H](CC(=O)O)[C@@H]2C)cc1` [Example 92, 2-((4S,5S)-1-(4-((1-(2-Fluoro-5-methoxyphenyl)piperidin-4-yl)oxy)phenyl)-3-(4-(methoxycarbonyl)phenyl)-4-methyl-4,5-dihydro-1H-pyrazol-5-yl)acetic acid] showed an EC50 of 0.139 µM.
In the case of `COc1ccc(F)c(N2CCC(Oc3ccc(N4N=C(C(F)(F)F)[C@@H](CC(C)C)[C@@H]4CC(=O)O)cc3)CC2)c1` (single isomer, unassigned) [Example 89, Isomer 2], the EC50 is reported as 0.39 µM.
`COc1ccc(F)c(N2CCC(Oc3ccc(N4N=C(C(F)(F)F)[C@@H](C)[C@@H]4CC(=O)O)cc3)C(F)C2)c1` (single isomer, unassigned) [Example 57 (Isomer 1)] was tested, and the EC50 was 0.292 µM.
Work on `C[C@@H]1C(C(F)(F)F)=NN(c2ccc(OC3CCN(c4ccc(Cl)cc4F)CC3)cc2)[C@H]1CC(=O)O` [Example 63, 2-((4S,5S)-1-(4-((1-(4-Chloro-2-fluorophenyl)piperidin-4-yl)oxy)phenyl)-4-methyl-3-(trifluoromethyl)-4,5-dihydro-1H-pyrazol-5-yl)acetic acid] yielded an EC50 of 0.398 µM.
`CCOc1cc(N2CC[C@H](Oc3ccc(N4N=C(C(F)(F)F)[C@@H](C)[C@@H]4CC(=O)O)cc3)[C@@H](C)C2)c(F)cn1` [Example 84, 2-((4S,5S)-1-(4-(((3S,4S)-1-(2-Ethoxy-5-fluoropyridin-4-yl)-3-methylpiperidin-4-yl)oxy)phenyl)-4-methyl-3-(trifluoromethyl)-4,5-dihydro-1H-pyrazol-5-yl)acetic acid] gave an EC50 of 2.58 µM.
Work on `Cc1cccc(C)c1N1CCC(Oc2ccc(N3N=C(C(F)(F)F)[C@@H](C)[C@@H]3CC(=O)O)cc2)CC1` [Example 44, 2-((4S,5S)-1-(4-((1-(2,6-Dimethylphenyl)piperidin-4-yl)oxy)phenyl)-4-methyl-3-(trifluoromethyl)-4,5-dihydro-1H-pyrazol-5-yl)acetic acid] yielded an EC50 of 1.34 µM.
`CCC1C(C(F)(F)F)=NN(c2ccc(OC3CCN(c4cc(OC)ncc4Cl)CC3C)cc2)C1CC(=O)O` (single isomer, unassigned) [Example 86, Isomer 3, 2-(1-(4-((1-(5-Chloro-2-methoxypyridin-4-yl)-3-methylpiperidin-4-yl)oxy)phenyl)-4-ethyl-3-(trifluoromethyl)-4,5-dihydro-1H-pyrazol-5-yl)acetic acid] was tested, and the EC50 was 1.93 µM.
In the case of `COc1cc(N2CCC(Oc3ccc(N4N=C(C(F)(F)F)[C@@H](C)[C@@H]4CC(=O)O)cc3)C(C)C2)c(Cl)cn1` (stereo partly drawn) [Example 81, Isomer 2, 2-((4S,5S)-1-(4-((1-(5-Chloro-2-methoxypyridin-4-yl)-3-methylpiperidin-4-yl)oxy)phenyl)-4-methyl-3-(trifluoromethyl)-4,5-dihydro-1H-pyrazol-5-yl)acetic acid], the EC50 is reported as 0.071 µM.
Compound `C[C@@H]1C(C(F)(F)F)=NN(c2ccc(OC3CCN(c4ccc(F)cc4)CC3)cc2)[C@H]1CC(=O)O` [Example 49, 2-((4S,5S)-1-(4-((1-(4-Fluorophenyl)piperidin-4-yl)oxy)phenyl)-4-methyl-3-(trifluoromethyl)-4,5-dihydro-1H-pyrazol-5-yl)acetic acid] has an EC50 of 2.65 µM.
Work on `CCOc1ccc(F)c(N2CCC(Oc3ccc(N4N=C(C(F)(F)F)[C@@H](C)[C@@H]4CC(=O)O)cc3)CC2)c1` [Example 32, 2-((4S,5S)-1-(4-((1-(5-Ethoxy-2-fluorophenyl)piperidin-4-yl)oxy)phenyl)-4-methyl-3-(trifluoromethyl)-4,5-dihydro-1H-pyrazol-5-yl)acetic acid] yielded an EC50 of 0.217 µM.
`COc1ccc(C)c(N2CCC(Oc3ccc(N4N=C(C(F)(F)F)[C@@H](C)[C@@H]4CC(=O)O)cc3)CC2)c1` [Example A2, 2-((4S,5S)-1-(4-(1-(5-Methoxy-2-methylphenyl)piperidin-4-yloxy)phenyl)-4-methyl-3-(trifluoromethyl)-4,5-dihydro-1H-pyrazol-5-yl)acetic acid] showed an EC50 of 0.161 µM.
`COc1cc(Cl)cc(N2CCC(Oc3ccc(N4N=C(C(F)(F)F)[C@@H](C)[C@@H]4CC(=O)O)cc3)CC2)n1` [Example 78, 2-((4S,5S)-1-(4-((1-(4-Chloro-6-methoxypyridin-2-yl)piperidin-4-yl)oxy)phenyl)-4-methyl-3-(trifluoromethyl)-4,5-dihydro-1H-pyrazol-5-yl)acetic acid] was tested, and the EC50 was 1.99 µM.
`C[C@@H]1C(C(F)(F)F)=NN(c2ccc(OC3CCN(c4cc(F)ccc4Cl)CC3)cc2)[C@H]1CC(=O)O` [Example 59, 2-((4S,5S)-1-(4-((1-(2-Chloro-5-fluorophenyl)piperidin-4-yl)oxy)phenyl)-4-methyl-3-(trifluoromethyl)-4,5-dihydro-1H-pyrazol-5-yl)acetic acid] showed an EC50 of 0.361 µM.
`COc1ccc(N2CCC(Oc3ccc(N4N=C(C(F)(F)F)[C@@H](C)[C@@H]4CC(=O)O)cc3)CC2)cc1F` [Example 52, 2-((4S,5S)-1-(4-((1-(3-Fluoro-4-methoxyphenyl)piperidin-4-yl)oxy)phenyl)-4-methyl-3-(trifluoromethyl)-4,5-dihydro-1H-pyrazol-5-yl)acetic acid] gave an EC50 of 3.62 µM.
In the case of `CCOc1ccc(F)c(N2CCC(Oc3ccc(N4N=C(c5ccc(F)cc5)[C@@H](C)[C@@H]4CC(=O)O)cc3)CC2)c1` [Example 95, 2-((4S,5S)-1-(4-((1-(5-Ethoxy-2-fluorophenyl)piperidin-4-yl)oxy)phenyl)-3-(4-fluorophenyl)-4-methyl-4,5-dihydro-1H-pyrazol-5-yl)acetic acid], the EC50 is reported as 0.108 µM.
